In US20250270200A1, “CTPS1 INHIBITORS AND USES THEREOF” (Nimbus Clotho, Inc., priority 2022, published 2025):

The compounds below were run against T1, human CTPS1 (Homo sapiens, UniProt P17812) (assay: ADP-Glo assay, human CTPS1 enzyme inhibition). Conditions: wild-type human CTPS1 25 nM; ATP 120 μM, UTP 160 μM, GTP 60 μM, L-glutamine 100 μM; 25 degrees C.; read-out: ADP-Glo_WT_hCTPS1—25 nM_IC50 (IC50).
T1 sequence (P17812 1-591): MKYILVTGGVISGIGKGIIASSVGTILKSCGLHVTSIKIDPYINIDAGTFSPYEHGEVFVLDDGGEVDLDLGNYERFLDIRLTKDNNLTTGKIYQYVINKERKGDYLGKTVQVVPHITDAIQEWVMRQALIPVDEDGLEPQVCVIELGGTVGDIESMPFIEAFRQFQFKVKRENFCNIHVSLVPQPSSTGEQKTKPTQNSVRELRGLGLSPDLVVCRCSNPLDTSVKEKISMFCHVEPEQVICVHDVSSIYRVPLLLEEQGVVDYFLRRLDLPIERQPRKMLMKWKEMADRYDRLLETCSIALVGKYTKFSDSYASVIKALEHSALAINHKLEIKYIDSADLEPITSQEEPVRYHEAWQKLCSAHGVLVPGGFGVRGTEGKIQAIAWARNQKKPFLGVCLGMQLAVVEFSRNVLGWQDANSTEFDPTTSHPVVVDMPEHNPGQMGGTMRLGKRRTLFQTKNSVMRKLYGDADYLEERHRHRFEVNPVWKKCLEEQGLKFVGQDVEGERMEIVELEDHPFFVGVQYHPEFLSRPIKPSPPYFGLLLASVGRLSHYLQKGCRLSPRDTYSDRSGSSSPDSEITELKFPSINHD
Assay type: biochemical
Method: The enzyme inhibitory activities of the compounds of the invention against the target of interest were determined using the ADP-Glo™ assay (Promega). Assays for human CTPS1 and CTPS2 were performed in 1× assay buffer containing 50 mM HEPES (Life Technologies), 10 mM Mg2+, 5 mM KCl, 2 mM DTT, 0.01% F-127, pH to 7.4 accordingly. All reagents are from Sigma-Aldrich, unless specified otherwise. Purified human full length active N-terminal FLAG-8×HIS-TEV tagged CTPS1 (UniprotKB—P17812, […]-CTPS1[1-591]) was generated using a mammalian expression system at Viva Biotech (Shanghai) Ltd.
Purified human CTPS1 protein was prepared in 1× assay buffer to the final working protein concentration required for the reaction. A 2.5 μL volume per well of human CTPS 1 protein was mixed with 0.1 μL per well of test compound dissolved in DMSO and pre-incubated at 25 degrees C. for 10 minutes. 2.5 μL per well of the reaction precursors ATP (UltraPure ATP from ADP-Glo™ kit) and UTP were then added and pre-incubated for an additional 10 minutes at 25 degrees C. Finally, the reaction was initiated by the addition of 5 μL of the reaction precursors L-glutamine and GTP. The final concentration of all reaction components in the assay: ATP (120 μM), UTP (160 μM), GTP (60 μM), L-Glutamine (100 μM), DMSO (1%), hCTPS1 (25 nM). This mixture was incubated for an appropriate amount of time within the determined linear phase of the reaction at 25 degrees C. under sealed plate conditions with constant agitation at 500 revolutions per minute (rpm). ADP-Glo™ reagent was added for 60 minutes (10 μL per well) and subsequently ADP-Glo™ development reagent was added for 60 minutes (20 μL per well) prior to signal detection in a microplate reader (Envision Multilabel Reader, Perkin Elmer). Following each reagent addition over the course of the assay, assay plates were pulse centrifuged for 1 minute at 1000 rpm.
The enzyme converts ATP to ADP and the ADP-Glo™ reagent subsequently depletes any remaining ATP in the reaction system. The ADP-Glo™ detection reagents converts the ADP that has been produced by the enzyme back into ATP, which is then utilized as a substrate together with luciferin for the enzyme luciferase. Light generated by this chemiluminescent reaction is quantified and is directly proportional to the amount of ADP produced by the CTPS1 enzyme reaction. […]

IC50 | Structure (SMILES)
5 to 25 nM | COC[C@H](NC(=O)c1ncc(-c2cnn3ccc(Cl)cc23)s1)c1nccc(NS(=O)(=O)C2CC2)c1F (single isomer, unassigned) [II-1]
5 to 25 nM | CCOc1cncc(-c2cnc(C(=O)N[C@@H](c3nccc(NS(=O)(=O)C4CC4)c3F)[C@@H]3CCOC3)s2)n1 (single isomer, unassigned) [II-19]

Same assay, conditions: wild-type human CTPS1, 25 nM enzyme; ADP-Glo; read-out: ADP-Glo_WT_hCTPS1—25 nM_IC50 (IC50)

Structure (SMILES) | IC50
CCOc1cncc(-c2cnc(C(=O)N[C@@H](CC(C)(C)N(C)C)c3cc(NS(=O)(=O)C4CC4)ccn3)s2)n1 [I-50, (S)-N-(1-(4-(cyclopropanesulfonamido)pyridin-2-yl)-3-(dimethylamino)-3-methylbutyl)-5-(6-ethoxypyrazin-2-yl)thiazole-2-carboxamide] | 5 to 25 nM
CCOc1cncc(-c2cnc(C(=O)N[C@@H](c3cccc(NS(=O)(=O)C(F)F)c3)C(C)(C)O)s2)n1 [I-290, (S)-N-(1-(3-((difluoromethyl)sulfonamido)phenyl)-2-hydroxy-2-methylpropyl)-5-(6-ethoxypyrazin-2-yl)thiazole-2-carboxamide] | 5 to 25 nM
CCOc1cncc(-c2cnc(C(=O)N[C@@H](c3cc(NS(=O)(=O)C4CC4)ccn3)[C@@H]3CN(C)CCO3)s2)n1 [I-101, N-((S)-(4-(cyclopropanesulfonamido)pyridin-2-yl)((S)-4-methylmorpholin-2-yl)methyl)-5-(6-ethoxypyrazin-2-yl)thiazole-2-carboxamide] | 5 to 25 nM
CCOc1cncc(-c2cnc(C(=O)N[C@@H](c3cccc(NS(=O)(=O)C(F)F)c3)[C@@H]3COCCO3)s2)n1 [I-200, N-((S)-(3-((difluoromethyl)sulfonamido)phenyl)((R)-1,4-dioxan-2-yl)methyl)-5-(6-ethoxypyrazin-2-yl)thiazole-2-carboxamide] | 5 to 25 nM
CCOc1cncc(-c2cnc(C(=O)N[C@@H](c3cc(NS(=O)(=O)C4CC4)ccn3)[C@H](C)O)s2)n1 [I-270, N-((1S,2S)-1-(4-(cyclopropanesulfonamido)pyridin-2-yl)-2-hydroxypropyl)-5-(6-ethoxypyrazin-2-yl)thiazole-2-carboxamide] | ≤ 5 nM
COCC[C@H](NC(=O)c1ncc(-c2cnn3ccc(Cl)cc23)s1)c1cc(NS(=O)(=O)C2CC2)ccn1 (single isomer, unassigned) [I-1] | 5 to 25 nM
O=C(N[C@@H](c1cc(NS(=O)(=O)C2CC2)ccn1)[C@@H]1COCCO1)c1ncc(-c2cnn3ccc(Cl)cc23)s1 [I-79, 5-(5-chloropyrazolo[1,5-a]pyridin-3-yl)-N-((S)-(4-(cyclopropanesulfonamido)pyridin-2-yl)((R)-1,4-dioxan-2-yl)methyl)thiazole-2-carboxamide] | 5 to 25 nM
CCOc1cncc(-c2cnc(C(=O)N[C@@H](C[C@H]3COCCN3C)c3cc(NS(=O)(=O)C4CC4)ccn3)s2)n1 [I-102, N-((S)-1-(4-(cyclopropanesulfonamido)pyridin-2-yl)-2-((S)-4-methylmorpholin-3-yl)ethyl)-5-(6-ethoxypyrazin-2-yl)thiazole-2-carboxamide] | 50 to 100 nM
CCOc1cncc(-c2cnc(C(=O)N[C@H](c3cc(NS(=O)(=O)C4CC4)ccn3)[C@H](C)CO)s2)n1 [I-229, N-((1S,2S)-1-(4-(cyclopropanesulfonamido)pyridin-2-yl)-3-hydroxy-2-methylpropyl)-5-(6-ethoxypyrazin-2-yl)thiazole-2-carboxamide] | ≤ 5 nM
CCOc1cncc(-c2ccc(C(=O)NCc3cc(NS(=O)(=O)C4CC4)ccn3)cc2F)n1 [I-173, N-((4-(cyclopropanesulfonamido)pyridin-2-yl)methyl)-4-(6-ethoxypyrazin-2-yl)-3-fluorobenzamide] | 5 to 25 nM
CCOc1cncc(-c2cnc(C(=O)N(C)[C@@H](c3cc(NS(=O)(=O)C4CC4)ccn3)[C@@H]3CCOC3)s2)n1 [I-66, N-((R)-(4-(cyclopropanesulfonamido)pyridin-2-yl)((S)-tetrahydrofuran-3-yl)methyl)-5-(6-ethoxypyrazin-2-yl)-N-methylthiazole-2-carboxamide] | 25 to 50 nM
CCOc1cncc(-c2cnc(C(=O)N[C@H](CN3CCCC3)c3cccc(NS(=O)(=O)C(F)F)c3)s2)n1 (single isomer, unassigned) [I-39] | 25 to 50 nM
CCOc1cncc(-c2cnc(C(=O)N[C@@H](c3cccc(NS(=O)(=O)C(F)F)c3)[C@H]3CCOC3)s2)n1 [I-190, N-((R)-(3-((difluoromethyl)sulfonamido)phenyl)((R)-tetrahydrofuran-3-yl)methyl)-5-(6-ethoxypyrazin-2-yl)thiazole-2-carboxamide] | 5 to 25 nM
CCOc1cncc(-c2cnc(C(=O)N[C@@H](c3cc(NS(=O)(=O)C4CC4)ccn3)[C@H](C)COC)s2)n1 [I-234, N-((1R,2S)-1-(4-(cyclopropanesulfonamido)pyridin-2-yl)-3-methoxy-2-methylpropyl)-5-(6-ethoxypyrazin-2-yl)thiazole-2-carboxamide] | ≤ 5 nM
CCOc1cncc(-c2cnc(C(=O)N[C@@H](c3cccc(NS(=O)(=O)C(F)F)c3)[C@@H](C)O)s2)n1 [I-287, N-((1S,2R)-1-(3-((difluoromethyl)sulfonamido)phenyl)-2-hydroxypropyl)-5-(6-ethoxypyrazin-2-yl)thiazole-2-carboxamide] | 5 to 25 nM

The remaining lines, values ahead:

IC50 | Structure (SMILES)
50 to 100 nM | CCOc1cncc(-c2cnc(C(=O)N[C@H](CC3COCCN3C)c3cccc(NS(=O)(=O)C(F)F)c3)s2)n1 (stereo partly drawn) [I-193, N-((1R)-1-(3-((difluoromethyl)sulfonamido)phenyl)-2-(4-methylmorpholin-3-yl)ethyl)-5-(6-ethoxypyrazin-2-yl)thiazole-2-carboxamide]
5 to 25 nM | CCOc1cncc(-c2cnc(C(=O)N[C@]3(c4cc(NS(=O)(=O)C5CC5)ccn4)CCOC3)s2)n1 (single isomer, unassigned) [I-72]
≤ 5 nM | CCOc1cncc(-c2cnc(C(=O)N[C@H](c3cc(NS(=O)(=O)C4CC4)ccn3)[C@@H](C)COC)s2)n1 [I-236, N-((1S,2R)-1-(4-(cyclopropanesulfonamido)pyridin-2-yl)-3-methoxy-2-methylpropyl)-5-(6-ethoxypyrazin-2-yl)thiazole-2-carboxamide]
> 100 nM | CCOc1cncc(-c2cnc(C(=O)N(C)[C@H](c3cc(NS(=O)(=O)C4CC4)ccn3)[C@H]3CCOC3)s2)n1 [I-63, N-((S)-(4-(cyclopropanesulfonamido)pyridin-2-yl)((R)-tetrahydrofuran-3-yl)methyl)-5-(6-ethoxypyrazin-2-yl)-N-methylthiazole-2-carboxamide]
5 to 25 nM | CCOc1cncc(-c2ccc(C(=O)NCc3cc(NS(=O)(=O)C4CC4)ccn3)c(F)c2F)n1 [I-175, N-((4-(cyclopropanesulfonamido)pyridin-2-yl)methyl)-4-(6-ethoxypyrazin-2-yl)-2,3-difluorobenzamide]
25 to 50 nM | CCOc1cncc(-c2cnc(C(=O)N[C@@H](Cn3nccn3)c3cc(NS(=O)(=O)C4CC4)ccn3)s2)n1 [I-157, (S)-N-(1-(4-(cyclopropanesulfonamido)pyridin-2-yl)-2-(2H-1,2,3-triazol-2-yl)ethyl)-5-(6-ethoxypyrazin-2-yl)thiazole-2-carboxamide]
5 to 25 nM | CCOc1cncc(-c2cnc(C(=O)N[C@@H](CN3CCOCC3)c3cc(NS(=O)(=O)C4CC4)ncn3)s2)n1 [I-246, (S)-N-(1-(6-(cyclopropanesulfonamido)pyrimidin-4-yl)-2-morpholinoethyl)-5-(6-ethoxypyrazin-2-yl)thiazole-2-carboxamide]
